Results taken from paper PMC6556873, “Rapid Covalent-Probe Discovery by Electrophile-Fragment Screening” (Journal of the American Chemical Society, 2019).
Read-outs that look alike come from different tables or passages of the source.

Legend:
[1] = in vitro; parameters: species or system HB2, HEK293; conditions: human, ccd841 cells
[2] = in vitro; parameters: species or system HB2, CCD841; conditions: human, hek293 cells
[3] = target: T1, PCAF (Homo sapiens, UniProt Q92831); parameters: Intact protein LC/MS covalent labelling, fragments in pools of five, 200 uM each, 4 °C; conditions: 24 h, 4 °C, pool of five; 200 µM; covalent
T1 construct: gene KAT2B
T1 sequence (Q92831 whole entry, the tested form may be a part): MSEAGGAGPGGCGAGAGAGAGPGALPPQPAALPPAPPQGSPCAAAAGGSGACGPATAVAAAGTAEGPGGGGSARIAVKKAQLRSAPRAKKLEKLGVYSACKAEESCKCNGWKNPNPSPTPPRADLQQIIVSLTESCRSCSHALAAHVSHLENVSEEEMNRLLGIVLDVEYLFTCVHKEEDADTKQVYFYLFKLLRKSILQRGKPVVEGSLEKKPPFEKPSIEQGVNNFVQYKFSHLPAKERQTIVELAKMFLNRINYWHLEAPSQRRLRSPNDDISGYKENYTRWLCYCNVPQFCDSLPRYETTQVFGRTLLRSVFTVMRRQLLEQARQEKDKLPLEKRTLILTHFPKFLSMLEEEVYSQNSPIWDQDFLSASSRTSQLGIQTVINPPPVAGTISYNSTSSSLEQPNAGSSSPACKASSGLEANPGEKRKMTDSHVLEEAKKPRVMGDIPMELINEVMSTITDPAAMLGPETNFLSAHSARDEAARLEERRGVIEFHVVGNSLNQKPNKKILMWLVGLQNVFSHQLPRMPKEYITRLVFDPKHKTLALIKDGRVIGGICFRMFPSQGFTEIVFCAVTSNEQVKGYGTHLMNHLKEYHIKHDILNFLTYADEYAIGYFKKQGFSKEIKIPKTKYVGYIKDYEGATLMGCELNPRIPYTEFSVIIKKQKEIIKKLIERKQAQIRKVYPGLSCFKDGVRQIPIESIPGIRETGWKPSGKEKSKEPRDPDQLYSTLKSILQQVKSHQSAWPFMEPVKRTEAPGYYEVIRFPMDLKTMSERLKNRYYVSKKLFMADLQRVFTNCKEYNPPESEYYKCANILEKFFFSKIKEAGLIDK

[4] = target: T2, OTUB2 (OTUB2A) (Homo sapiens, UniProt Q96DC9); parameters: Intact protein LC/MS covalent labelling, fragments in pools of five, 200 uM each, 4 °C; conditions: 24 h, 4 °C, pool of five; 200 µM; covalent
T2 construct: full length residues 1-234, E. coli BL21(DE3)-R3, His tag removed by TEV, construct 27312 Da
T2 sequence (Q96DC9 1-234): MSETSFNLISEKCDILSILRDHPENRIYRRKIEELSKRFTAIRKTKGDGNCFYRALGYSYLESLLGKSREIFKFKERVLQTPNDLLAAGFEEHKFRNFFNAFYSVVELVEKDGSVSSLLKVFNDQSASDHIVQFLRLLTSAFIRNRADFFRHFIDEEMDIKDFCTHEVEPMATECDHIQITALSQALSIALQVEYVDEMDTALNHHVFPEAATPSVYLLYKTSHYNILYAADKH

[5] = target: T3, NUDT7 (Homo sapiens, UniProt P0C024); parameters: Intact protein LC/MS covalent labelling, fragments in pools of five, 200 uM each, 4 °C; conditions: 24 h, 4 °C, pool of five; 200 µM; covalent
T3 construct: residues 14-235, E. coli, pNIC28-Bsa4, N-terminal His6 tag removed by TEV, construct 26672 Da
T3 sequence (P0C024 14-235): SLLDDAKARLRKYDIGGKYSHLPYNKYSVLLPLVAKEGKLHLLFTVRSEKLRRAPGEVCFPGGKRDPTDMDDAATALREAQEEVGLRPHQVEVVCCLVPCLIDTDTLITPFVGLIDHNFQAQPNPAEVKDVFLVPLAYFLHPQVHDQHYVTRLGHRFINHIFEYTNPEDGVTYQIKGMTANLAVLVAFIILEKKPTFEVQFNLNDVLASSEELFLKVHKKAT

[6] = target: T4, BSA (Bos taurus, UniProt P02769); parameters: Intact protein LC/MS covalent labelling, fragments in pools of five, 200 uM each, 4 °C; conditions: 24 h, 4 °C, pool of five; 200 µM; covalent
T4 construct: gene ALB
T4 sequence (P02769 whole entry, the tested form may be a part): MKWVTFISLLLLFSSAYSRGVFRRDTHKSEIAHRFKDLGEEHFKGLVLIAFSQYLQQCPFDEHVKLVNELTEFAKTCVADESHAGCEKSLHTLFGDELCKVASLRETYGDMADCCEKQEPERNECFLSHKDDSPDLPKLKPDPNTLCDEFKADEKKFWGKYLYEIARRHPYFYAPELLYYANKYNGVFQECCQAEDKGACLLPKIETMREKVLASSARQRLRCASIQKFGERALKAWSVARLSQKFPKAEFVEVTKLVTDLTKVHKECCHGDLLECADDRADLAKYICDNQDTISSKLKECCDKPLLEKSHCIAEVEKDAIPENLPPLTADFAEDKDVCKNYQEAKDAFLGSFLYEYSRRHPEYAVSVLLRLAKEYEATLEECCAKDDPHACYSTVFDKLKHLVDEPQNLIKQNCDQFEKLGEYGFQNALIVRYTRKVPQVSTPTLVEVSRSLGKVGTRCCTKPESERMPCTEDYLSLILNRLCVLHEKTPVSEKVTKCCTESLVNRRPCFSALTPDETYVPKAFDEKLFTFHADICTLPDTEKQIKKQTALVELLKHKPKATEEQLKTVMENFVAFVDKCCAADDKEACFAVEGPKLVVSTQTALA

[7] = target: T5, NNMT (hNNMT) (Homo sapiens, UniProt P40261); parameters: Intact protein LC/MS covalent labelling, fragments in pools of five, 200 uM each, 4 °C; conditions: 24 h, 4 °C, pool of five; 200 µM; covalent
T5 construct: wild type, N-terminal His6 tag kept (no cleavage described), E. coli, construct 31248 Da
T5 sequence (P40261 1-264): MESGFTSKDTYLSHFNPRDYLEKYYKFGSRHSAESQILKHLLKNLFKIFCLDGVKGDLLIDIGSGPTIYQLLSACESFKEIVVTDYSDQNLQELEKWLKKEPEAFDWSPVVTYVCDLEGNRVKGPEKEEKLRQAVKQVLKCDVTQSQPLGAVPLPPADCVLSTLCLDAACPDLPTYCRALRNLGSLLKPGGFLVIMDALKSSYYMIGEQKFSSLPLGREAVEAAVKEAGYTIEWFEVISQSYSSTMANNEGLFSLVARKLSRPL

[8] = in vitro; parameters: species or system CCD841, HEK293; conditions: human, hb2 cells, read-out: HB-2 Cells Viability (%)

| Structure (SMILES) | PCAF [3] | OTUB2 [4] | NUDT7 [5] | BSA [6] | NNMT [7] | viability at 48 h, 10 µM [1] | viability at 48 h, 10 µM [2] | viability at 48 h, 10 µM [8] |
| --- | --- | --- | --- | --- | --- | --- | --- | --- |
| CCc1nnc(NC(=O)CCl)s1 [PCM-0102166] | 0 | 0 | 0.21 | 0 | 0.42 | 92.5% | 95.8% | 94.5% |
| Cl.O=C(CCl)N1CCN(Cc2ccc(Br)s2)CC1 [PCM-0102169] | 0 | 0 | 0 | 0 | 0 | 33% | 8.6% | 8.8% |
| O=C(CCl)N1CCN(S(=O)(=O)c2cccs2)CC1 [PCM-0102241] | 0 | 0 | 0.12 | 0 | 0 | 49.1% | 8.9% | 8.9% |
| O=C(CCl)N1CCN(C(=O)c2ccco2)CC1 [PCM-0102248] | 0 | 0 | 0.09 | 0.06 | 0.1 | 73.2% | 35.6% | 78.1% |
| O=C(CCl)NC1CCCC1 [PCM-0102250] | 0 | 0 | 0 | 0 | 0 | 69.1% | 58.7% | 71.9% |
| CCOC(=O)N1CCC(NC(=O)CCl)CC1 [PCM-0102255] | 0 | 0.24 | 0 | 0 | 0.23 | 61.3% | 74.2% | 61.8% |
| Cl.O=C(CCl)N1CCN(Cc2cccc(Cl)c2)CC1 [PCM-0102269] | 0 | 0.19 | 0 | 0 | 0 | 24.2% | 7.9% | 6.3% |
| C=CC(=O)Nc1ccc(C(=O)O)cc1 [PCM-0102271] | 0 | 0 | 0 | 0 | 0 | 94.2% | 95.1% | 111% |
| CC(C)N(C(=O)CCl)c1ccccc1 [PCM-0102272] | 0 | 0 | 0.22 | 0 | 0 | 17.7% | 16% | 58.6% |
| Cl.O=C(CCl)N1CCN(Cc2ccc(Cl)s2)CC1 [PCM-0102277] | 0 | 0.09 | 0 | 0.11 | 0.26 | 37.3% | 18.2% | 8.6% |
| CC(C)(C)NC(=O)CN1CCN(C(=O)CCl)CC1.Cl [PCM-0102302] | 0 | 0.13 | 0.08 | 0 | 0.24 | 98.9% | 84.4% | 97% |
| CN(C)C(=O)CN1CCN(C(=O)CCl)CC1.Cl [PCM-0102304] | 0 | 0 | 0 | 0 | 0 | 114% | 128% | 107% |

Continued, in another order:

| PCAF [3] | OTUB2 [4] | NUDT7 [5] | BSA [6] | NNMT [7] | Structure (SMILES) | viability at 48 h, 10 µM [1] | viability at 48 h, 10 µM [2] | viability at 48 h, 10 µM [8] |
| --- | --- | --- | --- | --- | --- | --- | --- | --- |
| 0 | 0.52 | 0 | 0 | 0.25 | COc1ccc(NC(=O)CCl)cc1 [PCM-0102156] | 42.7% | 2.4% | 24.7% |
| 0 | 0.51 | 0 | 0 | 0 | O=C(CCl)Nc1ccccc1F [PCM-0102158] | 59% | 34.2% | 50% |
| 0 | 0 | 0 | 0 | 0.12 | O=C(CCl)Nc1ccccc1C(F)(F)F [PCM-0102170] | 99.1% | 72.6% | 96.7% |
| 0 | 0.47 | 0.12 | 0 | 0.23 | O=C(CCl)Nc1cccc(N2CCCC2=O)c1 [PCM-0102179] | 52.4% | 1.8% | 20.8% |
| 0 | 0 | 0.1 | 0 | 0.11 | O=C(CCl)Nc1c(F)cc(F)cc1Br [PCM-0102189] | 59.6% | 72.4% | 79.5% |
| 0 | 0.37 | 0.28 | 0 | 0 | O=C(CCl)Nc1cccc(Cl)c1 [PCM-0102198] | 41.1% | 1.8% | 9% |
| 0 | 0.39 | 0.08 | 0 | 0.3 | Cc1cc(Cl)ccc1NC(=O)CCl [PCM-0102214] | 67.9% | 5.5% | 44.6% |
| 0 | 0.2 | 0.07 | 0 | 0 | CC(NC(=O)CCl)c1ccc(F)cc1 (stereo not drawn) [PCM-0102228] | 83.2% | 63.8% | 84.6% |
| 0 | 0.86 | 0.37 | 0 | 0.34 | N#Cc1oc2ccccc2c1NC(=O)CCl [PCM-0102252] | 34.7% | 3.4% | 3.8% |
| 0 | 0 | 0 | 0 | 0 | CNC(=O)c1ccc(NC(=O)CCl)cc1 [PCM-0102267] | 32.5% | 2.2% | 20% |
| 0 | 0 | 0 | 0 | 0 | O=C(CCl)Nc1cccnc1Cl [PCM-0102274] | 88.8% | 81.4% | 84.4% |
| 0 | 0 | 0.14 | 0 | 0 | O=C(CCl)N1CCN(S(=O)(=O)c2ccccc2F)CC1 [PCM-0102281] | 62.6% | 9.5% | 7.1% |
| 0 | 0 | 0 | 0 | 0.19 | CC(=O)c1ccccc1NC(=O)CCl [PCM-0102282] | 90.3% | 87.2% | 102% |
| 0 | 0.26 | 0.12 | 0 | 0.77 | O=C(CCl)Nc1cccc(C(F)(F)F)c1 [PCM-0102290] | 40% | 2.3% | 9.5% |
| 0 | 0 | 0.35 | 0 | 0.15 | O=C(CCl)N1CCN(c2ccccc2Cl)CC1 [PCM-0102297] | 52% | 3.9% | 2.3% |
